ChEMBL document CHEMBL3727350, “Agents and methods for treating ischemic and other diseases” (2014)
Active and inactive are the calls of the source. The calls are words filed in the database; no cut-off is given here.

What follows are compounds tested against Transient receptor potential cation channel subfamily M member 7 (Mus musculus) (UniProt Q923J1) (assay: Inhibition of Tet-induced Flag-tagged mouse TRPM7 expressed in HEK293 cells assessed as inhibition of channel-mediated cell death in presence of Mg2+ incubated for 24 to 48 hrs by propidium iodide uptake assay). Conditions: not given.
Chain of Transient receptor potential cation channel subfamily M member 7 (Mus musculus) (Q923J1 whole entry): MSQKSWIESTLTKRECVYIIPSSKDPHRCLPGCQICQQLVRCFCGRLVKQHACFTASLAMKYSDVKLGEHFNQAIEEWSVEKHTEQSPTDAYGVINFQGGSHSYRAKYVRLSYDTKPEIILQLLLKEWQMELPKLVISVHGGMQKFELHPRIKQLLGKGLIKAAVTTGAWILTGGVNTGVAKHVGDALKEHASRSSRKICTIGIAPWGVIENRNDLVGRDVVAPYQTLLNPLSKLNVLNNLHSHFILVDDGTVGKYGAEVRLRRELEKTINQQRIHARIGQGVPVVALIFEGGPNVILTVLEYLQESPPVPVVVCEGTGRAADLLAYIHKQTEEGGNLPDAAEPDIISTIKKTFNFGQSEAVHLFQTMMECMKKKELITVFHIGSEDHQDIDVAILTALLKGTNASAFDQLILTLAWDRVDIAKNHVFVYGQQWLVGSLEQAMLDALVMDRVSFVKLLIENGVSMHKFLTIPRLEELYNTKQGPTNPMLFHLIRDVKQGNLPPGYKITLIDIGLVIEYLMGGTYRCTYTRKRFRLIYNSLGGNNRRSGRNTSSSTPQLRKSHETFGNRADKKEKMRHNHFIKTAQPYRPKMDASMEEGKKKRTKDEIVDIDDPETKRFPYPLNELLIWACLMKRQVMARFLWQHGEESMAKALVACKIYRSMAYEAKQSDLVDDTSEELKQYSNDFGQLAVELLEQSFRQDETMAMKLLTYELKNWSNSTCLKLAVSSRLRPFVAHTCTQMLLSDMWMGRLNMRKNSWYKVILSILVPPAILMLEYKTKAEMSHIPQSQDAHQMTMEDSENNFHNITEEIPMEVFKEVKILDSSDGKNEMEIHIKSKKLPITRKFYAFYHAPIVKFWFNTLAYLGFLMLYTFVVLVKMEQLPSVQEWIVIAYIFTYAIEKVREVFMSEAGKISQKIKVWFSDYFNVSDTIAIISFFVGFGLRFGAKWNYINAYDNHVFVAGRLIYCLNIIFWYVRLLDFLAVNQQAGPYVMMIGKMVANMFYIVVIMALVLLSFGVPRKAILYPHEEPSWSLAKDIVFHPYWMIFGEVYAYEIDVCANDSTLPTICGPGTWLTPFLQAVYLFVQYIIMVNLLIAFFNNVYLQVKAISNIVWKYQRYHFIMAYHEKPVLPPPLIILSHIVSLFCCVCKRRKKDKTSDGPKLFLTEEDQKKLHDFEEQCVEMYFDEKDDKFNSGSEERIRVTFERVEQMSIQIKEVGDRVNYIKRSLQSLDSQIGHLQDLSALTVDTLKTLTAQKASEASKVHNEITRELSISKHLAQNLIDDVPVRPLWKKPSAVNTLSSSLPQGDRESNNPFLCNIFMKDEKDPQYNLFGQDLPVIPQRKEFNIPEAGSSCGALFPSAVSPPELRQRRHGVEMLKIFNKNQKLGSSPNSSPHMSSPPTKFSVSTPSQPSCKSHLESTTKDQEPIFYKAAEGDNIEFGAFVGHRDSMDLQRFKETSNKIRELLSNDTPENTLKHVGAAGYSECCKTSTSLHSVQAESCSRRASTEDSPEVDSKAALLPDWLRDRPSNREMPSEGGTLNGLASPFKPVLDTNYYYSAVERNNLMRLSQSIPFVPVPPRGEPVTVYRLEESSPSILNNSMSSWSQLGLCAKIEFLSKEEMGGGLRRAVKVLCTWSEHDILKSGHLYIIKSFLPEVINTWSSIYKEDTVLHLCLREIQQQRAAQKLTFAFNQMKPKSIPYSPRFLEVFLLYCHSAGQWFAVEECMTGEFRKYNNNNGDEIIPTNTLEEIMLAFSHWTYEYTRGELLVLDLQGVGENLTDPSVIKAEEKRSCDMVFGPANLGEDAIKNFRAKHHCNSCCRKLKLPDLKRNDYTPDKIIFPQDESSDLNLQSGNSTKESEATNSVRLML
Type: cell-based
Parameters: concentration or dose not given beside the values

Row | SMILES | inhibition
1 | COc1cc(/C=C/C(=O)N2CCC=CC2=O)cc(OC)c1OC | Dose-dependent effect
2 | O=C1C(c2ccccc2)=C(O)C2C=CC=C3c4ccccc4N1C32 (stereo unspecified) | Active
3 | C=C(C)[C@@H]1CC[C@]2(C(=O)O)CC[C@]3(C)[C@H](CC[C@@H]4[C@@]5(C)CC[C@H](O)C(C)(C)[C@@H]5CC[C@]43C)[C@@H]12 | Dose-dependent effect
4 | COc1ccc(C[C@H]2NC[C@H](O)[C@H]2OC(C)=O)cc1 | Dose-dependent effect
5 | CCn1cnc2c(Nc3cccc(Cl)c3)nc(N[C@@H]3CCCC[C@@H]3N)nc21 (relative stereo) | Dose-dependent effect

Same assay, conditions: concentration not given here

Row | SMILES | inhibition
6 | C/C=C(\C)C(=O)Nc1nncs1 | < 30%
7 | O=C(CC12CC3CC(CC(C3)C1)C2)N1CCOCC1 | < 30%
8 | Cc1ccc(S(=O)(=O)Nc2ccc(C)cc2NS(=O)(=O)c2ccc(Cl)cc2)cc1 | 40%
9 | CSc1ncc2c(n1)CC(C)(C)C/C2=N/OC(=O)c1ccc(Cl)cc1 | < 30%
10 | O=C(O)C1Cc2ccccc2CN1 (stereo unspecified) | < 30%
11 | CCNC(=O)C(Cc1ccccc1)NC(=O)OC(C)(C)C (stereo unspecified) | 30%
12 | CC1CN=C(N(CCc2ccccc2)C(=O)Nc2ccc(Cl)cc2)S1 (stereo unspecified) | < 30%
13 | O=C(Oc1ccc([N+](=O)[O-])cc1)c1c(Cl)cccc1Cl | 50%
14 | Cc1cc(-c2nc(-c3ccc(C(C)(C)C)cc3)no2)no1 | 30%
15 | O=C(c1sc2ccccc2c1Cl)N1CCc2ccccc2C1 | 70%
16 | CC(=O)c1ccc(Nc2cc(C)nc3ccccc23)cc1 | < 30%
17 | Cc1ccc(C(=O)/C=C/C(=O)O)c(C)c1F | 60%
18 | O=S(=O)(NCc1cccs1)c1ccc(Sc2ncc(C(F)(F)F)cc2Cl)s1 | < 30%
19 | Cc1ccc(-c2n[nH]cc2Sc2ccc(C(F)(F)F)cn2)cc1 | < 30%
20 | Cc1onc(-c2c(Cl)cccc2Cl)c1C(=O)Oc1ccc2c(C(F)(F)F)cc(=O)oc2c1 | < 30%
21 | COc1cc2c(cc1OC)C(C(=O)c1sc3ccccc3c1Cl)=NCC2 | 80%
22 | O/N=C/c1ccc2c(c1)CCO2 | < 30%
23 | Cc1cc(C)c(-n2nnnc2SCC(=O)Nc2ccccc2Cl)c(C)c1 | < 30%
24 | O=C(CSC1CN(C(c2ccccc2)c2ccccc2)C1)N/N=C/c1ccncc1 | 50%
25 | CCOC(=O)C(=CNc1cc(OC)cc(C(F)(F)F)c1)C(=O)OCC | 70%
26 | Cc1onc(-c2c(Cl)cccc2Cl)c1C(=O)NCCc1csc2ccccc12 | < 30%
27 | CSC1=N/C(=C\c2ccccc2O)C(=O)N1Cc1ccco1 | < 30%

Row | SMILES | inhibition
28 | CC[n+]1c(/C=C/c2ccc(OC)cc2)ccc2ccccc21 | < 30%
29 | CC(C)c1ccc(-c2cc(=O)c3ccccc3o2)cc1 | 80%
30 | CC(=O)C(C#N)c1nc(-c2ccc(F)cc2)cs1 (stereo unspecified) | 70%
31 | N#Cc1ccc2[nH]cc(CCN(Cc3ccccc3)Cc3ccccc3)c2c1 | < 30%
32 | COc1ccc2c(c1)CCC1SC(NC(=O)c3ccco3)=NC21 (stereo unspecified) | < 30%
33 | CS(=O)(=NS(=O)(=O)c1ccc(Cl)cc1Cl)c1ccc(Cl)cc1 (stereo unspecified) | < 30%
34 | COc1ccc2nnc(-c3ccc(C(F)(F)F)cc3)n2n1 | < 30%
35 | COc1ccc(S(=O)(=O)N2CCC(O)(c3ccc(Cl)cc3)CC2)cc1OC | 40%
36 | O=C(c1cc(Br)cc2c1OCC2)N1CCOCC1 | < 30%
37 | O=C1/C(=C\c2ccc3c(c2)OCO3)C(c2ccccc2)Oc2ccccc21 (stereo unspecified) | 50%
38 | CC(C)NC(=S)Nc1ccc2c(c1)S(=O)(=O)C=C2 | < 30%
39 | Cc1onc(-c2c(Cl)cccc2Cl)c1C(=O)OCCOc1ccc(C(F)(F)F)cc1[N+](=O)[O-] | 60%
40 | CSc1nccc(-c2ccc(S(=O)(=O)n3nc(C)c(Br)c3C)s2)n1 | < 30%
41 | CCOC(=O)C(=CNNS(=O)(=O)c1cc(C(F)(F)F)cc(C(F)(F)F)c1)C(=O)OCC | 40%
42 | CCCCCCCCOc1ccc(S)nn1 | < 30%
43 | Cc1onc(-c2ccccc2Cl)c1C(=O)NNc1cccc(C(F)(F)F)n1 | < 30%
44 | Cc1[nH]c2ccccc2c1CN1CCN(c2ccc(F)cc2)CC1 | < 30%
45 | OC(COc1ccc(F)cc1)CN1CCN(Cc2c(F)cccc2Cl)CC1 (stereo unspecified) | 30%
46 | CC(C)(C)c1cc(C(=O)/C(C#N)=N/Nc2cccc(Cl)c2)no1 | 70%
47 | FC(F)(F)c1ccc(C2c3ccsc3CCN2C(=S)Nc2ccc(Cl)cc2Cl)cc1 (stereo unspecified) | 70%
48 | O=c1[nH]c2c(Cl)c(Cl)ccc2c(O)c1-c1ccccc1 | 60%
49 | O=S(=O)(CS(=O)(=O)Oc1ccc(Cl)cc1Cl)Oc1ccc(Cl)cc1Cl | < 30%

Row | SMILES | inhibition
50 | N#Cc1ccc(/C=N/Nc2ncc(-c3ccc4c(c3)OCCCO4)s2)cc1 | 70%
51 | CC(C)(C)S(=O)(=O)/C(C#N)=C/N/N=C/c1ccccc1Cl | < 30%
52 | Cc1ccc(C(=O)Nc2cccnc2Oc2ccc(C(C)(C)C)cc2)cc1C | 60%
53 | C=C(C(=O)OC)C(O)c1ccc(Br)cc1 (stereo unspecified) | 60%
54 | FC(F)(F)c1cc(Oc2ccc(Cl)cc2)ccc1-c1ncc(-c2cccc(Cl)c2)o1 | 70%
55 | CC(=O)/C(C#N)=C/c1ccco1 | < 30%
56 | Cn1c(CN2C(=O)CSc3ccc(C(F)(F)F)cc32)nnc1SCC(=O)c1ccccc1 | < 30%
57 | COc1cc(OC)cc(C(C)(C)OC(=O)NCCC(=O)O)c1 | < 30%
58 | Cc1csc(NC(=O)C(F)(F)F)c1C(N)=O | 50%
59 | COc1ccc(NC(=S)Nc2ccc(C)c(NS(C)(=O)=O)c2)cc1 | 70%
60 | OC(CN1CCN(C(c2ccccc2)c2ccccc2)CC1)c1ccccc1 (stereo unspecified) | 60%
61 | c1ccc2c(c1)Nc1nc3ccccc3nc1N2 | < 30%
62 | CC(C)(C)c1cc2nc(C(F)(F)F)cc(N3CCN(S(=O)(=O)c4ccccc4)CC3)n2n1 | < 30%
63 | Fc1ccc(N2CCN(Cc3c[nH]c(-c4ccccc4)n3)CC2)cc1 | 70%
64 | Cc1cc(S(=O)(=O)Cc2noc(-c3c(C)noc3C)n2)c(C)cc1Cl | 40%
65 | O=C(Nc1cccc([N+](=O)[O-])c1)c1ccccc1O | 60%
66 | CC(=O)C(C#N)c1nc(-c2ccc(Cl)c(C)c2)cs1 (stereo unspecified) | 70%
67 | COc1ccccc1C1CCN(S(=O)(=O)c2ccc(C(C)C)cc2)CC1 | 80%
68 | O=S(=O)(Cc1nc2ccc(Cl)cc2s1)CS(=O)(=O)Nc1nc2ccc(Cl)cc2s1 | 70%
69 | O=C(O/N=C(\Cn1nnc(N2CCCCC2)n1)c1ccc(Cl)cc1)c1ccccc1Cl | < 30%
70 | Cc1cc(OCc2c(C)c(C)c(C)c(C)c2C)c2c(Cl)ccc(C)c2n1 | 40%
71 | COc1cc2c(cc1OCC(=O)Nc1ccc(C)cc1)C=CC(C)(C)O2 | 30%

Row | SMILES | inhibition
72 | O=C(O)CNC(=O)c1cccs1 | < 30%
73 | CN1c2ccccc2C(C)(C)C12C=Cc1c(ccc3ccccc13)O2 (stereo unspecified) | < 30%
74 | NC(=O)c1sc(-c2ccc(Cl)cc2)cc1NS(=O)(=O)c1ccc(Cl)cc1 | 50%
75 | CN(C)c1cc(-c2cc(Cl)sc2Cl)oc(=O)c1Cl | < 30%
76 | CC(=O)OC[C@H]1OC(OC(C)(C)C)[C@H](OC(C)=O)[C@@H](OC(C)=O)[C@@H]1OC(C)=O (stereo partly specified) | 40%
77 | O=c1ccsn1-c1ccc(F)c(Cl)c1 | < 30%
78 | Cc1cc(C)cc(N/C=C(\C#N)S(=O)(=O)c2ccc(Cl)cc2)c1 | < 30%
79 | CCCCCc1c(COC)c2ccc(O)cc2oc1=O | 50%
80 | COc1cc2c(cc1OC)C(c1cccc(C)c1)NCC2 (stereo unspecified) | 60%
81 | N#Cc1c(Cl)cccc1Oc1ccc(S(=O)(=O)Nc2ccccc2)cc1 | 40%
82 | CCOC(=O)CCc1cc(/N=C/c2cc(Cl)cc(Cl)c2O)c(O)c(/N=C/c2cc(Cl)cc(Cl)c2O)c1 | 50%
83 | O=C(Nc1ccc(F)cc1F)c1cc(Cl)cc(Cl)c1O | < 30%
84 | Cc1ccc(NS(=O)(=O)c2ccc(-c3cnc(C)s3)s2)c(C)c1 | 80%
85 | O=C(O)c1cc(C(F)(F)F)cc(C(F)(F)F)c1 | < 30%
86 | CN1CCN(NC(NC(=O)c2cccnc2)(C(F)(F)F)C(F)(F)F)CC1 | < 30%
87 | CC(C)(C)c1ccc(-c2nc(CSc3ccc(Cl)cc3)no2)s1 | 60%
88 | O=C(c1ccc(F)cc1)C1CCN(Cc2c[nH]c(-c3ccccc3)n2)CC1 | 30%
89 | O=[N+]([O-])C1=Cc2c(ccc3ccccc23)OC1c1c(Cl)cccc1Cl (stereo unspecified) | 60%
90 | Brc1cn[nH]c1/C=N/Nc1nc(-c2ccccc2)cs1 | 50%
91 | C=CC/N=C1/NC(=O)C(CC(=O)Nc2ccc(Cl)cc2)S1 (stereo unspecified) | 50%
92 | CCCCCNC(=S)NNC(=O)OCC | 60%
93 | Oc1cc(C(F)(F)F)nc(SCc2ccccc2)n1 | 80%

Row | SMILES | inhibition
94 | c1ccc(/N=c2/[n-]n(-c3ccccc3)c[n+]2-c2ccccc2)cc1 | < 30%
95 | Cc1ccc(S(=O)(=O)Nc2ccccc2Oc2ccccc2)cc1 | < 30%
96 | CCC1(c2cccc(OC)c2)CCCC(=O)NC1 (stereo unspecified) | < 30%
97 | O=C(c1cccs1)N1CCCN(Cc2cccc3ccccc23)CC1 | 80%
98 | N#CCc1nn(-c2ccccc2)c(/N=C/c2cc(Cl)cc(Cl)c2O)c1C#N | 60%
99 | O=C(Nc1ccccc1)OCCSCc1ccc2nc(C(F)(F)F)ccc2c1 | 60%
100 | c1ccc(CSc2nccc(-c3ccc4c(c3)CCO4)n2)cc1 | 70%
101 | Cn1nc(-c2ccc(Cl)cc2)cc1NS(=O)(=O)c1cccc2nonc12 | < 30%
102 | N#CC1=C(N)Oc2c3c(c4ccccc4c2C1c1ccc(C(F)(F)F)cc1)C(c1ccc(C(F)(F)F)cc1)C(C#N)=C(N)O3 (stereo unspecified) | < 30%
103 | CCCC1c2ccsc2CCN1C(=S)Nc1ccc(Cl)cc1Cl (stereo unspecified) | 40%
104 | Clc1cccc2nnsc12 | 30%
105 | CCOC(=O)c1nc(COc2ccccc2Cl)[nH]c(=O)c1C | < 30%
106 | CC1CCN(CC(=O)Nc2ccc(Cl)cc2C(=O)c2ccccc2Cl)CC1 | 70%
107 | COc1ccc2c(c1)CCCN2C(=O)c1sc2ccccc2c1Cl | 60%
108 | COc1c(C(C)(C)C)cc(/N=C/c2ccccc2O)c(C)c1/N=C/c1ccccc1O | 60%
109 | CC(=O)Nc1ccc(S(=O)(=O)Nc2ccccc2Oc2ccc(Cl)cc2Cl)cc1 | 80%
110 | Cc1c(C)c(C)c(CN2CCOC(c3ccccc3)C2C)c(C)c1C (stereo unspecified) | < 30%
111 | COc1ccc(CCNC(=O)c2sc3ccccc3c2Cl)cc1OC | < 30%
